Experimental data: patent publication US8404435B2, “Enigma-Mdm2 interaction and uses thereof” (Korea Research Institute of Bioscience and Biotechnology, priority 2009, dated 2013)
One block for each compound: values may come before it.

Experiments:
[1] = test system: MEF (mouse embryonic fibroblast); experiment: Serum response of SRF-Enigma-Mdm2 pathway in MEF; assay type: cell-based
Protocol: (§1) The present inventors identified serum response by using MRC5 (human normal fibroblast), MEF (mouse embryonic fibroblast) to identify presence of SRF-Enigma-Mdm2 pathway in normal cells. In case of MRC5, activity of SRF-Enigma-Mdm2 pathway by serum was inhibited when siSRF (10, 15 μg) is induced or PD98059 is present; in case of MEF, activity of SRF-Enigma-Mdm2 pathway was inhibited by PD98059 (FIGS. 12A and 12C). Thus, an amount of protein by transcriptional activity increased for SRF, Enigma, transcript level for Mdm2 (p1-Mdm2) and p53 was unvaried. However, transcript level for p2-Mdm2 changed dependently on an amount of p53 expression (FIGS. 12B and 12D).

[2] = test system: MRC5 (human normal fibroblast); experiment: Serum response of SRF-Enigma-Mdm2 pathway in MRC5; assay type: cell-based
Protocol: as §1

[3] = test system: Mdm2+/+p53-/- MEF cell lines; experiment: HGF effect on SRF-Enigma-Mdm2 pathway with or without PD98059; assay type: cell-based, mouse; settings: Ad-p53 or Ad-LacZ induced
Excerpt: Since an MAP kinase is known to be associated with SRF expression by cell growth factor (J Physiol Pharmacol 53, 147-157, 53, 2002), the present inventors hypothesized that an MAP kinase is associated with regulation of SRF-Enigma-Mdm2 pathway, and tested by using PD98059, MAP kinase-specific inhibitor. The present inventors treated the cells with HGF and with or without PD98059 after inducing Ad-p53 or Ad-LacZ into Mdm2^+/+p53^−/− MEF cell lines. As the result, PD98059 abolished the HGF effect on SRF-Enigma-Mdm2 pathway (FIG. 10E).

Mdm2 [4] = molecular target: T1, Mdm2 (Homo sapiens, UniProt Q00987); experiment: In vitro binding assay (GST pull-down / IP) of purified proteins; settings: proteins purified from E. coli
T1 construct: His; made in house; host or cells: E. coli
T1 sequence (Q00987 whole entry): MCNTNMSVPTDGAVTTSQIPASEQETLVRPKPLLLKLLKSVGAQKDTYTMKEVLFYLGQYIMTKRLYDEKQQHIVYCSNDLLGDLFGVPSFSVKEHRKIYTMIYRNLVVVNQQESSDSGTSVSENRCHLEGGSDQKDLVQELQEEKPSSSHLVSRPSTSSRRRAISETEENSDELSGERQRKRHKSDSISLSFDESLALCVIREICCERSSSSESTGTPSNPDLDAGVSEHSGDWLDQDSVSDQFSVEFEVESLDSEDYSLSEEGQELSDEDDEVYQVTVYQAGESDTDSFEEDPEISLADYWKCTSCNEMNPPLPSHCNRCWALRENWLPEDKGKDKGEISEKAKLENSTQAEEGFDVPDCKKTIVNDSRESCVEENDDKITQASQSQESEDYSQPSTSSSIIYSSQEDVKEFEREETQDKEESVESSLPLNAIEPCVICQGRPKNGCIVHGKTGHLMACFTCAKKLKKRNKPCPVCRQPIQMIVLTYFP
Protocol: The present inventors, to test interaction between Enigma and Mdm2, generated mutants (F-PDZ, F-PDZ-LIM1, F-LIM) of Enigma in pCMVtaq2B vector by a common PCR cloning method, and produced mutants (GST-1-100, GST-101-491, GST-201-491, GST-301-491) of Mdm2 in pEBG vector by a PCR cloning method. His-Mdm2, Enigma, GST-p53, EniΔLIM3 proteins were respectively separated and purified from E. coli to identify the interaction in vitro.
In vitro binding assay was performed to identify directly in-vitro interaction between respective proteins (1 μg His-Mdm2, 0.5 μg Enigma, 1 μg GST-p53) which are separated and purified from E. coli. Binding between respective proteins were induced after mixing, the bindings between proteins were identified by a GST pull-down and an IP method.
A binding site was determined by using respective mutants produced from Enigma and Mdm2. First, each mutant vector (5 μg) was introduced into a 293 cell line where Hag-Enigma is constitutively expressed, and afterwards binding was identified by GST pull-down and by a Western blotting with a Hag antibody (FIG. 5D). Also, each Enigma mutant (5 μg) and GST-Mdm2 expression vector (5 μg) were introduced into a 293T cell line (ATCC) by a calcium phosphate method. At 24 hours, the cells were collected, and binding was identified by IP with a Flag antibody and by a Western blotting with a GST antibody (FIG. 5E). […]

Mdm2 [5] = molecular target: T1, Mdm2; experiment: In vitro ubiquitination assay; assay type: biochemical
Protocol: In vitro ubiquitination assay was performed to test self-ubiquitination of Mdm2 by Enigma's binding. After ubiquitin reaction mixture (including E1, E2, His-Ub, ATP) was added and reacted to His-Mdm2 protein (0.5 μg), His-Mdm2 (C464A: 0.5 μg), Enigma protein (0.5, 1 μg), F-EniΔLIM3 (1 μg), a change in self-ubiquitination and binding proteins for Mdm2 were identified by an IP/IB method. As the result, self-ubiquitination of Mdm2 was inhibited by F-Enigma, which binds to Mdm2, and Enigma had no effect on an Mdm2 (C464A) variant where 464-cysteine on the Mdm2 RING finger region was substituted by alanine (FIG. 7C). Also, Enigma stimulated Mdm2-mediated p53 ubiquitination in vitro (FIG. 7D). Thus, Enigma was identified as a determining factor that shifts specificity of Mdm2 E3 ligase from itself toward p53.
PCAF (p300-CBP-associated factor) induces the ubiquitination of Mdm2 (Nat Cell Biol 9, 331-338, 2007). When proteins purified from bacteria and described in FIG. 5-1a were used to perform an in-vitro ubiquitin experiment, Enigma had no effect on Mdm2 ubiquitination by PCAF (FIG. 8A). This event was also tested in an Mdm2^−/−p53^−/− MEF cell line (FIG. 8B).

Enigma promoter = experiment: SRE-Luc / ΔSRE-Luc Enigma promoter reporter assay; assay type: cell-based; settings: HLK3; 20, 40 ng/ml, 6 hours
Protocol: After Enigma-Luc was induced into an HLK3 cell line (0.5 μg), was cultured in DMEM with 0.1% […] for 24 hours, and was cultured with 5% and 20% FBS added for 6 hours again, luciferase activity of collected cells were measured. As the result, activity of Enigma-Luc increased dependently on the concentration of serum (FIG. 9B).
After SRE-Luc (0.5 μg), ΔSRE-Luc (0.5 μg), which were produced to test SRF dependence of Enigma expression, were induced into an HLK3 cell line, the cells were cultured in DMEM with 0.1% FBS for 24 hours, and were cultured with 5% and 20% FBS, FGF (20, 40 ng/ml), or HGF (20, 40 ng/ml) added for 6 hours again, luciferase activity of collected cells were measured.

HLK3 cell line = experiment: HGF effect on SRF-Enigma-Mdm2-p53 pathway, Western blotting; assay type: cell-based; settings: HGF 40, 60 ng/ml, 4 hours before cell collection
Protocol: The present inventors investigated whether SRF-Enigma-Mdm2 pathway is also regulated by HGF. The present inventors, to show specific relevance of SRF, Enigma, identified changes in each protein by a Western blotting after inducing 10 μg each of siEnigma, siSRF into an HLK3 cell line, culturing them in a condition of removing serum, and processing each with HGF (40, 60 ng/ml) 4 hours before cell collection. […] Furthermore, the present inventors observed a change in Enigma and Mdm2 after directly inducing F-SRF into an HLK3 cell line concentration-wise (5, 10 μg).

mouse liver = experiment: SRF-Enigma-Mdm2-p53 pathway in mouse liver, Western blotting; assay type: in vivo, mice (Balb/c); settings: HGF 100 μg/kg into tail vein, livers removed time-wise
Protocol: The present inventors identified a change in SRF-Enigma-Mdm2-p53 by a Western blotting after injecting each of Ad-p53 or Ad-LacZ virus (5×10^8 pfu) into tail vein of mice (Balb/c, Female, Taconic) and after 24 hours injecting HGF (100 μg/kg) into tail vein of mice again, removing livers time-wise. As the result, HGF induced protein expression by transcriptionally activating SRF, Enigma was induced by SRF at transcription level, and an amount of protein increased.
The present inventors, to observe a change in Mdm2-p53 according to a direct change in an amount of Enigma expression, identified an amount of each protein by a Western blotting after injecting or not injecting Ad-p53 into tail vein of mice (Balb/c, Female, Taconic) and after 24 hours injecting Ad-F-Enigma, Ad-LacZ, PBS into tail vein of mice again, removing livers after 48 hours. Furthermore, after injecting Ad-siEnigma, Ad-siControl and PBS into tail vein and injecting HGF into tail vein 8 hours before liver removal.

Compound: COc1cccc(-c2cc(=O)c3ccccc3o2)c1N [PD98059]
- activity of SRF-Enigma-Mdm2 pathway [1]: inhibited
- activity of SRF-Enigma-Mdm2 pathway by serum [2]: inhibited
- HGF effect on SRF-Enigma-Mdm2 pathway [3]: abolished

- binding to Mdm2 in vitro (Mdm2 [4]): bound to Mdm2 directly
- Mdm2-mediated p53 ubiquitination in vitro (Mdm2 [5]): stimulated
- Mdm2 ubiquitination by PCAF in vitro (Mdm2 [5]): no effect
- self-ubiquitination of Mdm2 in vitro (Mdm2 [5]; Enigma protein 0.5, 1 μg, His-Mdm2 0.5 μg): inhibited
Compound: Enigma: Enigma protein separated and purified from E. coli

Compound: HGF: growth factor
- reporter activity of SRE-Luc but not ΔSRE-Luc (Enigma promoter): increased dependently on the concentration of growth factor
- changes in SRF, Enigma, Mdm2, p53 protein (HLK3 cell line): an increase in SRF-Enigma-Mdm2 and a SRF- or Enigma-dependent decrease in p53
- amount of protein of Mdm2 and p53 in liver (mouse liver): the amount of protein in Mdm2 increased and simultaneously that of p53 decreased
